{"source": "patent US8563545B2", "about": "“Compound useful for the treatment of degenerative and inflammatory diseases” (Galapagos NV, priority 2009, dated 2013)", "key": {"TNF release in vivo": {"test_system": "TNF release in vivo", "assay": "Septic shock model (LPS-induced TNF release)", "set-up": "species or system mouse", "conditions": "BALB/cJ mice, 30 mg/kg, po, LPS 15 μg/kg ip", "protocol": "Injection of lipopolysaccharide (LPS) induces a rapid release of soluble tumour necrosis factor (TNF-alpha) into the periphery. This model was used to analyse prospective blockers of TNF release in vivo. Six BALB/cJ female mice (20 g) per group were treated at the intended dosing once, po. Thirty minutes later, LPS (15 μg/kg; E. Coli serotype 0111:B4) was injected ip. Ninety minutes later, mice were euthanized and blood was collected. Circulating TNF alpha levels were determined using commercially available ELISA kits. Dexamethasone ([…]) was used as a reference anti-inflammatory compound. Selected compounds were tested at one or multiple doses, e.g. 3 and/or 10 and/or 30 mg/kg, po."}, "[1]": {"assay": "Microsomal stability, rat", "assay_type": "in vitro ADME", "conditions": "rat liver microsomes, 3 μM compound", "protocol": "A 10 mM stock solution of compound in DMSO was diluted 1000 fold in a 182 mM phosphate buffer pH7.4 in a 96 deep well plate (Greiner, Cat no. 780285) and pre-incubated at 37° C. 40 μL of deionised water was added to a well of a polypropylene Matrix 2D barcode labelled storage tube (Thermo Scientific) and pre-incubated at 37° C.\nA Glucose-6-phophate-dehydrogenase (G6PDH) working stock solution was prepared in 182 mM phosphate buffer pH7.4 and placed on ice before use. A co-factor containing MgCl2, glucose-6-phosphate and NADP+ was prepared in deionised water and placed on ice before use.\nA final working solution containing liver microsomes (Xenotech) of a species of interest (human, mouse, rat, dog), previously described G6PDH and co-factors was prepared and this mix was incubated for no longer than 20 minutes at room temperature.\n30 μL of the pre-heated compound dilution was added to 40 μL of pre-heated water in the Matrix tubes and 30 μL, of the microsomal mix was added. Final reaction concentrations were 3 μM compound, 1 mg microsomes, 0.4 U/mL GDPDH, 3.3 mM MgCl2, 3.3 mM glucose-6-phosphate and 1.3 mM NADP+.\nTo measure percentage remaining of compound at time zero MeOH or ACN was added (1:1) to the well before adding the microsomal mix. The plates were sealed with Matrix Sepra Seals™ (Matrix, Cat. No. 4464) and shaken for a few seconds ensure complete mixing of all components.\nThe samples which were not stopped are incubated at 37° C., 300 rpm and after 1 hr of incubation the reaction was stopped with MeOH or ACN (1:1).\nAfter stopping the reaction the samples were mixed and placed on ice for 30 min to precipitate the proteins. The plates were then centrifuged 30 min at 1200 rcf at 4° C. and the supernatant was transferred to a 96 v-bottom PP plate (Greiner, 651201) for analysis on LCMS.\nThese plates were sealed with sealing mats (MA96RD-04S) of www.kinesis.co.uk and samples were measured at room temperature on LCMS (ZQ 1525 from Waters) under optimized conditions using Quanoptimize to determine the appropriate mass of the parent molecule.\nThe samples were analyzed on LCMS with a flow rate of 1 mL/min. Solvent A was 15 mM ammonia and solvent B was methanol or acetonitrile, depending on the stop solution used. The samples were run under positive ion spray on an XBridge C18 […] (2.1×30 mm) column, from Waters.\nPeak area from the parent compound at time 0 was considered to be 100% remaining. The percentage remaining after 1 hr incubation was calculated from time 0 and was calculated as the percentage remaining. The solubility of the compound in the final test concentration in buffer is inspected by microscope and results are reported.\nThe data on microsomal stability are expressed as a percentage of the total amount of compound remaining after 60 min."}, "[2]": {"assay": "Plasma protein binding (equilibrium dialysis), rat", "assay_type": "in vitro ADME", "conditions": "10 μM, 4 hrs at 37° C.", "protocol": "(§1) A 10 mM stock solution of the compound in DMSO was diluted with a factor 5 in DMSO. This solution was further diluted in freshly thawed human, rat, mouse or dog plasma (BioReclamation INC) with a final concentration of 10 μM and final DMSO concentration of 0.5% (5.5 μL in 1094.5 μL plasma in a PP-Masterblock 96 well (Greiner, Cat no. 780285))\n(§2) A Pierce Red Device plate with inserts (ThermoScientific, Cat no. 89809) was prepared and filled with 750 μL PBS in the buffer chamber and 500 μL of the spiked plasma in the plasma chamber. The plate was incubated for 4 hrs at 37° C. while shaking at 230 rpm. After incubation, 120 μL of both chambers was transferred to 360 μL acetonitrile in a 96-well round bottom, PP deep-well plates (Nunc, Cat no. 278743) and sealed with an aluminum foil lid. The samples were mixed and placed on ice for 30 min. This plate was then centrifuged 30 min at 1200 rcf at 4° C. and the supernatant was transferred to a 96 v-bottom PP plate (Greiner, 651201) for analysis on LCMS.\n(§3) The plate is sealed with sealing mats (MA96RD-04S) of www.kinesis.co.uk and samples are measured at room temperature on LCMS (ZQ 1525 from Waters) under optimized conditions using Quanoptimize to determine the appropriate mass of the molecule.\n(§4) The samples were analyzed on LCMS with a flow rate of […]. Solvent A was 15 mM ammonia and solvent B was acetonitrile. The sample was run under positive ion spray on an XBridge C18 3.5 μM (2.1×30 mm) column, from Waters. The solvent gradient has a total run time of 2 minutes and ranges from 5% B to 95% B.\n(§5) Peak area from the compound in the buffer chamber and the plasma chamber are considered to be 100% compound."}, "[3]": {"assay": "Pharmacokinetic study in rodents", "assay_type": "in vivo, rat", "conditions": "for F: PO 5 mg/kg vs IV 1 mg/kg; for Cmax: read-out: C0 or Cmax; for AUC(0-t): read-out: AUC (0-24 h); for AUC: read-out: AUC (0-z); for Vd: read-out: Vss", "protocol": "Sprague-Dawley rats (male, 5-6 weeks old) were obtained from Janvier (France). Rats were acclimatized for at least 7 days before treatment and were kept on a 12 hr light/dark cycle (0700-1900). Temperature was maintained at approximately 22° C., and food and water were provided ad libitum. […] After the surgery, rats were housed individually. Rats were deprived of food for at least 16 hours before oral dosing and 6 hours after. Water was provided ad libitum.\nTest compounds were orally dosed as a single esophageal gavage at 5 mg/kg under a dosing volume of 5 ml/kg and intravenously dosed as a bolus via the caudal vein at 1 mg/kg under a dosing volume of 5 mL/kg. Each group consisted of 3 rats. […] For compound 11, blood samples were collected at the retro-orbital sinus with lithium heparin as anti-coagulant at the following time points 0.25, 1, 3 and 6 hrs (oral route). Whole blood samples were centrifuged at 5000 rpm for 10 min and the resulting plasma samples were stored at −20° C. pending analysis.\nPlasma concentrations of each test compound were determined by an LC-MS/MS method in which the mass spectrometer was operated in positive electrospray mode.\nPharmacokinetic parameters were calculated using Winnonlin® (Pharsight®, United States)."}, "[4]": {"assay": "Plasma protein binding (equilibrium dialysis), human", "assay_type": "in vitro ADME", "conditions": "10 μM, 4 hrs at 37° C.", "protocol": "as §1, §2, §3, §4, §5"}, "[5]": {"conditions": "male, Sprague-Dawley, rat, plasma, po, 5 mg/kg"}, "[6]": {"conditions": "male, plasma, Sprague-Dawley rat, IV 1 mg/kg (C0)"}, "[7]": {"conditions": "male, plasma, Sprague-Dawley rat, IV 1 mg/kg"}, "[8]": {"conditions": "male, plasma, Sprague-Dawley rat, PO 5 mg/kg"}}, "note": "Like-named read-outs stand apart in the source and are kept apart here."}
{"smiles": "O=C(Nc1nc2cccc(-c3ccc(CN4CCOCC4)cc3)n2n1)C1CC1", "note": "[Compound 2, N-(5-(4-(morpholinomethyl)phenyl)-[1,2,4]triazolo[1,5-a]pyridin-2-yl)cyclopropanecarboxamide]", "values": [{"measurement": "activity in septic shock model (circulating TNF alpha)", "setting": "TNF release in vivo", "result": "active"}, {"measurement": "percentage of compound remaining after 60 min, Rat", "setting": "[1]", "result": 38, "unit": "%"}, {"measurement": "percentage bound to plasma, Rat", "setting": "[2]", "result": 64.5, "unit": "%"}, {"measurement": "Cl", "setting": "[3]; Sprague-Dawley rat, IV 1 mg/kg", "result": 2.12}, {"measurement": "F", "setting": "[3]; Sprague-Dawley rat", "result": 62, "unit": "%"}, {"measurement": "Cmax", "setting": "[3]; [5]", "result": 1320, "unit": "ng/mL"}, {"measurement": "Cmax", "setting": "[3]; [6]", "result": 863, "unit": "ng/mL"}, {"measurement": "AUC(0-t)", "setting": "[3]; [7]", "result": 474, "unit": "ng·h/mL"}, {"measurement": "AUC", "setting": "[3]; [7]", "result": 470, "unit": "ng·h/mL"}, {"measurement": "Vd", "setting": "[3]; [7]", "result": 1.46, "unit": "L/kg"}, {"measurement": "Tmax", "setting": "[3]; [8]", "result": 19.8, "unit": "min"}, {"measurement": "AUC(0-t)", "setting": "[3]; [8]", "result": 1460, "unit": "ng·h/mL"}, {"measurement": "AUC", "setting": "[3]; [8]", "result": 1440, "unit": "ng·h/mL"}, {"measurement": "percentage bound to plasma, Human", "setting": "[4]", "result": 70.5, "unit": "%"}]}
{"smiles": "O=C(Nc1nc2cccc(-c3ccc(CN4CCS(=O)(=O)CC4)cc3)n2n1)C1CC1", "note": "[Compound 1, Cyclopropanecarboxylic acid {5-[4-(1,1-dioxo-1-thiomorpholin-4-ylmethyl)-phenyl]-[1,2,4]triazolo [1,5-a]pyridin-2-yl}-amide]", "values": [{"measurement": "activity in septic shock model (circulating TNF alpha)", "setting": "TNF release in vivo", "result": "active"}, {"measurement": "percentage of compound remaining after 60 min, Rat", "setting": "[1]", "result": 65.6, "unit": "%"}, {"measurement": "percentage bound to plasma, Rat", "setting": "[2]", "result": 65.7, "unit": "%"}, {"measurement": "F", "setting": "[3]; Sprague-Dawley rat", "result": 45, "unit": "%"}, {"measurement": "Cmax", "setting": "[3]; [5]", "result": 310, "unit": "ng/mL"}, {"measurement": "clearance", "setting": "[3]; [7]", "result": 22.5, "unit": "mL/min/kg"}, {"measurement": "Cmax", "setting": "[3]; [6]", "result": 1410, "unit": "ng/mL"}, {"measurement": "AUC", "setting": "[3]; [7]", "result": 722, "unit": "ng·h/mL"}, {"measurement": "Vd", "setting": "[3]; [7]", "result": 1.76, "unit": "L/kg"}, {"measurement": "Tmax", "setting": "[3]; [8]", "result": 132, "unit": "min"}, {"measurement": "AUC(0-t)", "setting": "[3]; [8]", "result": 1680, "unit": "ng·h/mL"}, {"measurement": "AUC", "setting": "[3]; [8]", "result": 1430, "unit": "ng·h/mL"}, {"measurement": "percentage bound to plasma, Human", "setting": "[4]", "result": 76.4, "unit": "%"}]}
{"smiles": "O=C(Nc1nc2cccc(-c3ccc(C(=O)N4CCS(=O)(=O)CC4)cc3)n2n1)C1CC1", "note": "[Compound 10, Cyclopropanecarboxylic acid {5-[4-(1,1-dioxo-1-thiomorpholine-4-carbonyl)-phenyl]-[1,2,4]triazolo [1,5-a]pyridin-2-yl}-amide]", "values": [{"measurement": "activity in septic shock model (circulating TNF alpha)", "setting": "TNF release in vivo", "result": "active"}, {"measurement": "percentage of compound remaining after 60 min, Rat", "setting": "[1]", "result": 89, "unit": "%"}, {"measurement": "percentage bound to plasma, Rat", "setting": "[2]", "result": 51, "unit": "%"}]}
{"smiles": "O=C(Nc1nc2cccc(-c3ccc(CN4CCC(F)(F)CC4)cc3)n2n1)C1CC1", "note": "[Compound 11, Cyclopropanecarboxylic acid {5-[4-(4,4-difluoro-piperidin-1-ylmethyl)-phenyl]-[1,2,4]triazolo [1,5-a]pyridin-2-yl}-amide]", "values": [{"measurement": "percentage of compound remaining after 60 min, Rat", "setting": "[1]", "result": 26, "unit": "%"}, {"measurement": "percentage bound to plasma, Rat", "setting": "[2]", "result": 76.5, "unit": "%"}, {"measurement": "Cmax", "setting": "[3]; [5]", "result": 547, "unit": "ng/mL"}, {"measurement": "Tmax", "setting": "[3]; [8]", "result": 15, "unit": "min"}, {"measurement": "AUC", "setting": "[3]; [8]", "result": 690, "unit": "ng·h/mL"}, {"measurement": "percentage bound to plasma, Human", "setting": "[4]", "result": 91.25, "unit": "%"}]}
